The text below walks through data of PMC4780864, “Family-wide Structural Analysis of Human Numb-Associated Protein Kinases” (Structure(London, England:1993), 2016).

What all share (assay): biochemical
For experiment [1], the target named is T1, BIKE (Homo sapiens, UniProt Q9NSY1).
T1 construct: gene BMP2K; catalytic domain-containing construct
Also noted: Thermal shift assay (DSF, SYPRO Orange), 2 uM kinase domain, mean delta Tm of triplicates versus DMSO. To be noted: read-out: BIKE. The protocol: (§1) All measurements were performed in triplicate and mean values were reported for all compounds (Table S1). […] However, NAKs are often omitted from selectivity panels, including commercial screens.

Experiment [2] deals with T2, GAK (Homo sapiens, UniProt O14976).
T2 construct: catalytic domain-containing construct
T2 sequence (O14976 1-1311): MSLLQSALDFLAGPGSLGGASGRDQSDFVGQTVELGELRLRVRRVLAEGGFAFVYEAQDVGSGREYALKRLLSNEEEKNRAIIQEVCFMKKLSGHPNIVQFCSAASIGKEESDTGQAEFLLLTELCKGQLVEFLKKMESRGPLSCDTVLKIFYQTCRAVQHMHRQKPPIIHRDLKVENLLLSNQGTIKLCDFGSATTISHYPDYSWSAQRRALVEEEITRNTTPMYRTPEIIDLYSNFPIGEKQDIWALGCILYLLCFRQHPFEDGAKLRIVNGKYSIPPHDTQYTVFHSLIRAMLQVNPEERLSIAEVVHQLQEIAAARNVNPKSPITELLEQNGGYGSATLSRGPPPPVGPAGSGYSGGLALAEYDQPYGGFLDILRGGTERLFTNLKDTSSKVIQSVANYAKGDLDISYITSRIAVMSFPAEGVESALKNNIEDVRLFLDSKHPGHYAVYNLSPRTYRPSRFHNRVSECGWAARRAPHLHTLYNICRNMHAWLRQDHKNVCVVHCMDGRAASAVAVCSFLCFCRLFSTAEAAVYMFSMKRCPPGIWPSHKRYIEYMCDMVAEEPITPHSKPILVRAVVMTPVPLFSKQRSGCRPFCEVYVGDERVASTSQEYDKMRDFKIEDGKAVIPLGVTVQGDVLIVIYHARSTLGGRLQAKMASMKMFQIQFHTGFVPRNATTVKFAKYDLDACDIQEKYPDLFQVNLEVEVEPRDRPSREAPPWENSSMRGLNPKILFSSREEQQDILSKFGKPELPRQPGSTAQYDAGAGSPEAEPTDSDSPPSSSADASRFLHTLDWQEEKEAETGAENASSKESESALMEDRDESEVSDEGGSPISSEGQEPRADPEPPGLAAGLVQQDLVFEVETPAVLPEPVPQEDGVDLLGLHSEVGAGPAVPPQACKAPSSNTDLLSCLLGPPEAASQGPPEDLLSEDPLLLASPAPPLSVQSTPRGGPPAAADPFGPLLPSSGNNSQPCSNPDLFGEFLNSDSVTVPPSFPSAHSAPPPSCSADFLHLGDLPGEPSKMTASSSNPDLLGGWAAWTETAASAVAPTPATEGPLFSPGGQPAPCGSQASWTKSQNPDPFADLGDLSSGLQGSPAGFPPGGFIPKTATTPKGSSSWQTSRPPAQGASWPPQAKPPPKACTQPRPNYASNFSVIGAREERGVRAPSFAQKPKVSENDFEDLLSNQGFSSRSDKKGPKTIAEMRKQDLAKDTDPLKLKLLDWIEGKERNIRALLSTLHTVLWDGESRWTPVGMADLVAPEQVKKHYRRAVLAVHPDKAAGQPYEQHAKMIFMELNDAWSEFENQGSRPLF
Also noted: Thermal shift assay (DSF, SYPRO Orange), 2 uM kinase domain, mean delta Tm of triplicates versus DMSO. Particulars: for ΔTm at 12.5 µM: read-out: GAK. As to the method: as §1

In experiment [3] the target is T3, MPSK1 (Homo sapiens, UniProt O75716).
T3 construct: gene STK16; catalytic domain-containing construct
T3 sequence (O75716 whole entry, the tested form may be a part): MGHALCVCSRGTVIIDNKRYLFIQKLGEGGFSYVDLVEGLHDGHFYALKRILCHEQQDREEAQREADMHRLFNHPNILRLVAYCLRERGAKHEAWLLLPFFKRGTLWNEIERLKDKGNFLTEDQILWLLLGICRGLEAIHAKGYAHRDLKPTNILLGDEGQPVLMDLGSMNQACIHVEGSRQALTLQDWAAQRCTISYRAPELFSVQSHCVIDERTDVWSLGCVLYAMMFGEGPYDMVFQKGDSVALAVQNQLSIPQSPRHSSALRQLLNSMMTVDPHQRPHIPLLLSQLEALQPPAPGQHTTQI
Details: Thermal shift assay (DSF, SYPRO Orange), 2 uM kinase domain, mean delta Tm of triplicates versus DMSO. Particulars: read-out: MPSK1. As to the method:
as §1

Experiment [4] addresses AAK1 (Homo sapiens, UniProt Q2M2I8). Also noted: kinase domain; Thermal shift assay (DSF, SYPRO Orange), 2 uM kinase domain, mean delta Tm of triplicates versus DMSO. Particulars: read-out: AAK1. As to the method: as §1

T1 sequence (Q9NSY1 whole entry, the tested form may be a part): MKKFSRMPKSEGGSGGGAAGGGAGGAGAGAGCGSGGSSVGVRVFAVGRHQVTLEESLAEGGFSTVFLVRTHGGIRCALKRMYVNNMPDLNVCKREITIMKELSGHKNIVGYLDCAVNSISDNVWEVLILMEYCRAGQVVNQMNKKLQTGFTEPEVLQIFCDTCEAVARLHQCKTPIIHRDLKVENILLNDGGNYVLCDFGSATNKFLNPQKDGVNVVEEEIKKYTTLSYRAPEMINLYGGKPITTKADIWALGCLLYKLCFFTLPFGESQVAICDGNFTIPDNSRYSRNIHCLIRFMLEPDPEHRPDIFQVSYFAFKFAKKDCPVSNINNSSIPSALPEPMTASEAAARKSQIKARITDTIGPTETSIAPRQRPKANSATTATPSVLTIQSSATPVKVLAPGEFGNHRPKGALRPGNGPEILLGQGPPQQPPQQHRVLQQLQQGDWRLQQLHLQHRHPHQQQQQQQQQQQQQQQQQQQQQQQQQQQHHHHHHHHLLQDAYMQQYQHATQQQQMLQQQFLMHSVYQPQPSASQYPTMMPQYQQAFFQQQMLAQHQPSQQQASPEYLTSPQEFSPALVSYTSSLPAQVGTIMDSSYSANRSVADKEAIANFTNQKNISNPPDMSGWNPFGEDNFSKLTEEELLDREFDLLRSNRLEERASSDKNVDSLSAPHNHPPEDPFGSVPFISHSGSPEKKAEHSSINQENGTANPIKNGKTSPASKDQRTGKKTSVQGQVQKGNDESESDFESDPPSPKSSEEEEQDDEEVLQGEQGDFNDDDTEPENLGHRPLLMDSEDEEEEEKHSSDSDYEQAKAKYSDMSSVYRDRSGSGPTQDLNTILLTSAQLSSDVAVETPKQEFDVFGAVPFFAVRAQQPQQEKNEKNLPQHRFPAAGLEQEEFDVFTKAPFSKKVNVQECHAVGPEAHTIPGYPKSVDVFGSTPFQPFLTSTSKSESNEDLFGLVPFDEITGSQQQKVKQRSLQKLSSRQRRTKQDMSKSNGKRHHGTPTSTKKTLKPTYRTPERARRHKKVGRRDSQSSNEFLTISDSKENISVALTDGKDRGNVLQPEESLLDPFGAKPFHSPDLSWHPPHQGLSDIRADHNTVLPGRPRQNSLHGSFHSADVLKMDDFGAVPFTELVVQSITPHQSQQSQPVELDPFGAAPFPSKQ
Sequence of AAK1 (Q2M2I8 27-365 limits assumed): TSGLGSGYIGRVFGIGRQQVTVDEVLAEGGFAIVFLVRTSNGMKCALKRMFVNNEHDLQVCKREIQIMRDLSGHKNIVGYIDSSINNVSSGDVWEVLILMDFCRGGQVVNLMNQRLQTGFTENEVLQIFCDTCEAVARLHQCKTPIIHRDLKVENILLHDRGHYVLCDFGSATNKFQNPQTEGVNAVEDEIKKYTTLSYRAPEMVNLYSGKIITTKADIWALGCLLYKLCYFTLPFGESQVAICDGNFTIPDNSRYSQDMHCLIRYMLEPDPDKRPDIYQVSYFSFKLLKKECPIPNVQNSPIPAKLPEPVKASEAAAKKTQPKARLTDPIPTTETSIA

`CCc1cc2c(cc1N1CCC(N3CCOCC3)CC1)C(C)(C)c1[nH]c3cc(C#N)ccc3c1C2=O` [Alectinib]: the ΔTm at 12.5 µM in experiment [1] came to 0.673 °C; in experiment [2], 6.7 °C; in experiment [3], 1.29 °C; in experiment [4] it was 0.613 °C.

For `COc1cc(Nc2ncc3c(n2)-c2ccc(Cl)cc2C(c2c(F)cccc2OC)=NC3)ccc1C(=O)O` [Alisertib], the ΔTm at 12.5 µM in experiment [1] is 0.78 °C; in experiment [2] it was -0.237 °C; in experiment [3] it was 2.32 °C; in experiment [4] it was 0.29 °C.

In the case of `CN1CC[C@H](c2c(O)cc(O)c3c(=O)cc(-c4ccccc4Cl)oc23)[C@H](O)C1` [Alvocidib], the ΔTm at 12.5 µM was determined as 1.46 °C in experiment [1], 1.31 °C in experiment [2], 1.55 °C in experiment [3] and 1.86 °C in experiment [4].

As for `S=C(NCc1ccc2c(c1)OCO2)N1CCN(c2ncnc3c2oc2ccccc23)CC1` [Amuvatinib], the ΔTm at 12.5 µM was 1.16 °C in experiment [1], 0.377 °C in experiment [2], 0.233 °C in experiment [3] and 1.93 °C in experiment [4].

For the compound `N#CC1(c2ccc(NC(=O)c3cccnc3NCc3ccncc3)cc2)CCCC1` [Apatinib], the ΔTm at 12.5 µM was 0.843 °C in experiment [1], -0.113 °C in experiment [2], 0.55 °C in experiment [3] and 0.223 °C in experiment [4].

Take `Cc1c(CN2CCN(C(=O)[C@H](C)O)CC2)sc2c(N3CCOCC3)nc(-c3cnc(N)nc3)nc12` [Apitolisib]: the ΔTm at 12.5 µM in experiment [1] amounted to 1.55 °C; in experiment [2] it was 0.847 °C; in experiment [3], 3.51 °C; in experiment [4], 1.4 °C.

For `CNC(=O)c1ccccc1Sc1ccc2c(/C=C/c3ccccn3)n[nH]c2c1` [Axitinib], the ΔTm at 12.5 µM in experiment [1] came out at 12.4 °C; in experiment [2], 0.75 °C; in experiment [3], 3.09 °C; in experiment [4] it was 6.85 °C.

On to `Cc1c(NC(=O)OC[C@@H]2COCCN2)cn2ncnc(Nc3ccc4c(cnn4Cc4cccc(F)c4)c3)c12` [BMS-599626], for which the ΔTm at 12.5 µM amounted to 4.37 °C in experiment [1], 2.18 °C in experiment [2], 0.293 °C in experiment [3] and 2.62 °C in experiment [4].

Consider `C[C@@]1(C(=O)Nc2ccc(F)nc2)CCCN1c1nc(Nc2cc(C3CC3)n[nH]2)c2cccn2n1` [BMS-754807], for which the ΔTm at 12.5 µM in experiment [1] is 2.91 °C; in experiment [2] it was -0.337 °C; in experiment [3] it was 5.21 °C; in experiment [4], 0.483 °C.

For `CCn1c(C(=O)N(C2CC2)C2CC2)cc2c3c(ncn3C)c(Nc3cc(C)n(C)n3)nc21` [BMS-911543], the ΔTm at 12.5 µM in experiment [1] came to 4.41 °C; in experiment [2], 1.58 °C; in experiment [3], 0.99 °C; in experiment [4], 1.25 °C.

With `O=C(Nc1cccc(Nc2ncc(Br)c(NCCc3cnc[nH]3)n2)c1)N1CCCC1` [BX-912], the ΔTm at 12.5 µM in experiment [1] came to 15.9 °C; in experiment [2], 4.05 °C; in experiment [3], 8.25 °C; in experiment [4], 9.95 °C.

As to `Cc1nc(NC(=O)N2CCC[C@H]2C(N)=O)sc1-c1ccnc(C(C)(C)C(F)(F)F)c1` [BYL719], the ΔTm at 12.5 µM in experiment [1] was 3.88 °C; in experiment [2], 2.41 °C; in experiment [3], 0.743 °C; in experiment [4], 4.38 °C.

As for `Cc1ccc(NC(=O)c2ccc(CN3CC[C@H](N(C)C)C3)c(C(F)(F)F)c2)cc1Nc1nccc(-c2cncnc2)n1` [Bafetinib], the ΔTm at 12.5 µM in experiment [1] is 1.1 °C; in experiment [2], 4.57 °C; in experiment [3], 2.51 °C; in experiment [4], 1.07 °C.

Regarding `COc1cc(Nc2c(C#N)cnc3cc(OCCCN4CCN(C)CC4)c(OC)cc23)c(Cl)cc1Cl` [Bosutinib], the ΔTm at 12.5 µM in experiment [1] was 5.88 °C; in experiment [2], 9.42 °C; in experiment [3], 1.25 °C; in experiment [4], 3.03 °C.

For the compound `Cc1cc2c(F)c(Oc3ncnn4cc(OC[C@@H](C)O)c(C)c34)ccc2[nH]1` [Brivanib], the ΔTm at 12.5 µM in experiment [1] amounted to 0.81 °C; in experiment [2], 0.347 °C; in experiment [3], 0.977 °C; in experiment [4] it was 1.34 °C.

In the case of `Nc1cc(C(F)(F)F)c(-c2cc(N3CCOCC3)nc(N3CCOCC3)n2)cn1` [Buparlisib], the ΔTm at 12.5 µM in experiment [1] was 0.573 °C; in experiment [2], -0.927 °C; in experiment [3], 1.75 °C; in experiment [4], 0.317 °C.

As for `C#Cc1cccc(Nc2ncnc3cc(OC)c(OCCCCCCC(=O)NO)cc23)c1` [CUDC-101], the ΔTm at 12.5 µM came out at 0.917 °C in experiment [1], 2.77 °C in experiment [2], 0.407 °C in experiment [3] and 0.713 °C in experiment [4].

`COc1cc2nccc(Oc3ccc(NC(=O)C4(C(=O)Nc5ccc(F)cc5)CC4)cc3)c2cc1OC` [Cabozantinib]: the ΔTm at 12.5 µM in experiment [1] stood at 0.743 °C; in experiment [2] it was 2.46 °C; in experiment [3], 0.713 °C; in experiment [4], 0.82 °C.

As for `COc1cc2c(Oc3ccc4[nH]c(C)cc4c3F)ncnc2cc1OCCCN1CCCC1` [Cediranib], the ΔTm at 12.5 µM worked out at 1.58 °C in experiment [1], 0.667 °C in experiment [2], 1.03 °C in experiment [3] and 0.543 °C in experiment [4].

For `CC1(COc2ccc3c(c2)ncn3-c2ccc3cccc(N4CCC(N)CC4)c3n2)COC1` [Crenolanib], the ΔTm at 12.5 µM came out at 12 °C in experiment [1], 3.73 °C in experiment [2], 4.1 °C in experiment [3] and 4.66 °C in experiment [4].

Take `C[C@@H](Oc1cc(-c2cnn(C3CCNCC3)c2)cnc1N)c1c(Cl)ccc(F)c1Cl` [Crizotinib]: the ΔTm at 12.5 µM is 7.44 °C in experiment [1], -0.44 °C in experiment [2], 1.95 °C in experiment [3] and 3.01 °C in experiment [4].

For `CC(C)(C)c1nc(-c2cccc(NS(=O)(=O)c3c(F)cccc3F)c2F)c(-c2ccnc(N)n2)s1` [Dabrafenib], the ΔTm at 12.5 µM in experiment [1] was 2.95 °C; in experiment [2], 9.06 °C; in experiment [3], 4.06 °C; in experiment [4], 2.23 °C.

As to `COc1cc2ncnc(Nc3ccc(F)c(Cl)c3)c2cc1NC(=O)/C=C/CN1CCCCC1` [Dacomitinib], the ΔTm at 12.5 µM was determined as 5.85 °C in experiment [1], 7.28 °C in experiment [2], 0.97 °C in experiment [3] and 3.8 °C in experiment [4].

Turning to `Cn1c(=O)n(-c2ccc(C(C)(C)C#N)cc2)c2c3cc(-c4cnc5ccccc5c4)ccc3ncc21` [Dactolisib], the ΔTm at 12.5 µM in experiment [1] is 0.873 °C; in experiment [2], -0.05 °C; in experiment [3], 1.49 °C; in experiment [4] it was 0.747 °C.

In the case of `CO[C@@H](C(=O)N1Cc2[nH]nc(NC(=O)c3ccc(N4CCN(C)CC4)cc3)c2C1)c1ccccc1` [Danusertib], the ΔTm at 12.5 µM in experiment [1] turned out to be 1.68 °C; in experiment [2], 0.59 °C; in experiment [3] it was 2.36 °C; in experiment [4] it was 1.74 °C.

Turning to `Cc1nc(Nc2ncc(C(=O)Nc3c(C)cccc3Cl)s2)cc(N2CCN(CCO)CC2)n1` [Dasatinib], the ΔTm at 12.5 µM in experiment [1] was -0.673 °C; in experiment [3], 0.0333 °C; in experiment [4] it was 0.363 °C. The GAK in experiment [2] (12.5 µM) was 0.14 °C.

Consider `CCc1cnn2c(NCc3ccc[n+]([O-])c3)cc(N3CCCC[C@H]3CCO)nc12` [Dinaciclib], for which the ΔTm at 12.5 µM in experiment [1] was 0.5 °C; in experiment [2] it was -1.13 °C; in experiment [3], 1 °C; in experiment [4] it was 0.23 °C.
